According to patent US20070185116A1, “Bicyclic compounds” (TANABE SEIYAKU CO., LTD., priority 2004, published 2007):

Tests used:
[1] = tested on: isolated rabbit urinary bladder; assay: Relaxation effect on potassium-induced contraction of isolated rabbit urinary bladder; type: cell-based; settings: Oryctolagus cuniculus; strips pre-contracted with high-K+ (30 mM) Krebs solution; relaxation as percentage of maximum relaxation by 10^-4 M papaverine; read-out: IC50 value (50% relaxation concentration)
Description: [Relaxation Effect on Potassium-Induced Contraction of Isolated Rabbit Urinary Bladder]
Urinary bladder was isolated from Male NZW rabbits (body weight: 2.0-3.5 kg) and immersed in ice-cold Krebs-bicarbonate solution (in mM: 118 NaCl, 4.7 KCl, 2.55 CaCl2, 1.18 MgSO4, 1.18 KH2PO4, 24.88 NaHCO3 and 11.1 glucose). The urinary bladder was cut into longitudinal strips (5 mm length, 3-4 mm width) after mucosal layer was removed.
Preparations were mounted in organ baths containing 10 ml of Krebs solution maintained at 37° C. and gassed with 95% O2/5% CO2. Accordingly, preparations were stretched with an initial tension of 2.0±1.0 g, and changes in isometric tension were measured by force-displacement transducer. The preparations were pre-contracted by changing organ-bath solution into high-K^+ (30 mM) Krebs solution (in mM: 118 NaCl, […], 2.55 CaCl2, 1.18 MgSO4, 1.18 KH2PO4, 24.88 NaHCO3 and 11.1 glucose).
After stable tension was obtained, compounds were added into organ baths cumulatively (10^−8 M-10^−4 M). The effects of compounds were expressed as a percentage of the maximum relaxation produced by 10^−4 M papaverine as 100%. 50% relaxation concentration (IC50) was calculated and IC50 value range (μM) of compounds of the present invention was shown in the following Table 1 with a rank of A, B or C.
These ranges are as mentioned below.

[2] = tested on: rhythmic bladder contractions induced by substance P; assay: Inhibitory effect on the rhythmic bladder contractions induced by substance P in anesthetized rats; type: in vivo, rat; settings: 0.25 mg/kg, intravenous administration; urethane-anesthetized female Sprague-Dawley rats; observed for 35 minutes

IC50 [1]	SMILES	100% inhibition time: Time (min) during which the frequency of the rhythmic contraction had been completely inhibited [2]
500 to 1000 nM	Cc1ccc(-c2ncc(Cl)cc2-c2ccc(C(N)=O)cc2)cn1 [Example 1]	20.5 min
500 to 1000 nM	Cc1ccccc1-c1ncc(Cl)cc1-c1ccc(C(N)=O)cc1 [Example 43]	>35 min
